pEC50: −log10 of the molar value. Entries after “also recorded” stand apart in the source; their conditions may differ. Where two headings read alike, the source gives them in different places.
What was measured:
S1PR3 = S1PR3 (Homo sapiens, UniProt Q99500); test: Agonistic activity test on S1P receptors, FLIPR; format: cell-based
Experimental: Instrument: FLIPR™ TETRA (Molecular Device)
Sample processing: Before the experiment, the working solution with the corresponding concentration was prepared by diluting with GPCR dilution buffer.
After 18-20 hours, the cell culture plat was taken out and added with dye working solution, and then the plate was placed in a 37° C./5% CO2 incubator for 1 hour, and finally equilibrated at room temperature for 15 minutes. Positive agonist working solution was added, and RFU values were detected and recorded. […] The positive agonist working fluid was added to the cell culture plate at the 21st second. […] The antagonistic mode detection program, the overall detection time of the instrument was 120 seconds, and positive antagonist working solution was added to the cell culture plate at the 21st second.
Data processing: Raw data were obtained via ScreenWorks (version 3.1) and saved as *FMD files on the Kingsray computer network system. Data were collected and analyzed using Excel and GraphPad Prism 6 software programs. For each well, the average fluorescence intensity value from 1 to 20 seconds was used as the baseline, and the maximum fluorescence intensity value from 21 to 120 seconds minus the minimum fluorescence intensity value from 21 to 120 seconds was the relative fluorescence intensity value (ARFU), from which the percentage activation or inhibition can be calculated based on the following equation.
% Activation Rate=(ΔRFUCompound-ΔRFUBackground)/(ΔRFUAgonist control-ΔRFUBackground)×100%
The data was analyzed using GraphPad Prism 6 with a four-parameter equation to calculate the EC50 and IC50 values. The four-parameter equation was as follows: y=Bottom+(Top-Bottom)/(1+10^((LogEC50/IC50-X)*HillSlope)), wherein X is the Log value of the concentration and Y was the inhibition rate.

S1P2 = S1P2 (Homo sapiens, UniProt O95136); test: Subtype selectivity study, method of Experimental Example 1; format: cell-based
Sequence of S1P2 (O95136 whole entry, species assumed): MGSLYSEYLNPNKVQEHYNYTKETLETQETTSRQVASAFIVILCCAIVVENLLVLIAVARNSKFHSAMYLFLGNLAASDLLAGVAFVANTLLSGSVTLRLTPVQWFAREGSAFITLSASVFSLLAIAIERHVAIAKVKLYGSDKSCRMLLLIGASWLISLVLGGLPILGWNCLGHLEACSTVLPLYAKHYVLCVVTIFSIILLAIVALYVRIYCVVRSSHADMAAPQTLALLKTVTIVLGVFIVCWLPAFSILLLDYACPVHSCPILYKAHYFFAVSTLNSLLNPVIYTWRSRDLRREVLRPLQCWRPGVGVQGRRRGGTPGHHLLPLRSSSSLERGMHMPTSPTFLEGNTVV
Experimental: (§1) Experimental method: CHO-K1/Ga15/EDG1 cells stably expressing EDG1 receptor were cultured in a 10 cm culture dish in a 37° C./5% CO2incubator, and digested when the confluence rate reached 80%-85%. The cells in collected cell suspension were inoculated into 384 microtiter plates at appropriate density, and then placed in a 37° C./5% CO2 incubator and continue to incubate for at least 18 hours before using for experiments. After 18-20 hours, the cell culture plat was taken out and added with dye working solution, and then the plate was placed in a 37° C./5% CO2 incubator for 1 hour, and finally equilibrated at room temperature for 15 minutes. Positive agonist working solution was added, and RFU values were detected and recorded. The 384 microplates, cell plates and tip box with positive agonist working solution were placed into FLIPRTM TETRA and the agonist mode assay program was run with an overall assay time of 120 seconds. The positive agonist working fluid was added to the cell culture plate at the 21st second. 384 microplate, cell plate and gun head box containing the positive antagonist working fluid were put into the FLIPRTM TETRA. The antagonistic mode detection program, the overall detection time of the instrument was 120 seconds, and positive antagonist working solution was added to the cell culture plate at the 21st second. Data processing: Raw data were obtained via ScreenWorks (version 3.1) and saved as *FMD files on the […] computer network system. Data were collected and analyzed using Excel and GraphPad Prism 6 software programs. […] The four-parameter equation was as follows: y=Bottom+(Top-Bottom)/(1+10^((LogEC50/IC50-X)*HillSlope)), wherein X is the Log value of the concentration and Y was the inhibition rate. The S1P receptor selectivity was tested for different subtypes using the method described in Experimental Example 1.

S1P4 = biological target: T1, S1P4 (Homo sapiens, UniProt O95977); test: as above; format: cell-based
T1 sequence (O95977 1-384): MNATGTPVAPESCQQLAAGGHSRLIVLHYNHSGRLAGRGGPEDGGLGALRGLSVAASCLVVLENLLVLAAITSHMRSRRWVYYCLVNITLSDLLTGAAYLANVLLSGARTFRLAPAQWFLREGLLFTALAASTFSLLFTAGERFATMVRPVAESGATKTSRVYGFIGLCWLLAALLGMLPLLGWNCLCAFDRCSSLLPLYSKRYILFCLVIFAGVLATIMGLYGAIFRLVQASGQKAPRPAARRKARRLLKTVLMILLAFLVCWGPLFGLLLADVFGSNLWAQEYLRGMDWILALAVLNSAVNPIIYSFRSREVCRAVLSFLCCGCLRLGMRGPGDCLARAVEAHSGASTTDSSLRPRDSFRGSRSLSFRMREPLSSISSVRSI
Experimental: as §1

S1P5 = S1P5 (Homo sapiens, UniProt Q9H228); test: as above; format: cell-based
Sequence of S1P5 (Q9H228 whole entry, species assumed): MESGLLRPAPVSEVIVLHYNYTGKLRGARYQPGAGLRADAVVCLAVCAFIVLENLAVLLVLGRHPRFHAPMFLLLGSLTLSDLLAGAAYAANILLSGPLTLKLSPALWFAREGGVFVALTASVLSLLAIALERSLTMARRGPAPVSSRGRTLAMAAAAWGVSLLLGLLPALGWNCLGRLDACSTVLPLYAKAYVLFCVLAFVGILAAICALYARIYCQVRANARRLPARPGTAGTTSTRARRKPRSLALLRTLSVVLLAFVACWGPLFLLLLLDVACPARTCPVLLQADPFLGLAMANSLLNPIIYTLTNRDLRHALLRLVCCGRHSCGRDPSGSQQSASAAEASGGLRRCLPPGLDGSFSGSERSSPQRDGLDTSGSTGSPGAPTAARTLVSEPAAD
Experimental: as §1

[1] = tested on: CCI4-induced liver fibrosis model; test: Pharmacological activity test in carbon tetrachloride induced liver fibrosis model; format: in vivo, C57BL/6 mice
Experimental: Male C57BL/6 mice were injected intraperitoneally with 5% CCI4(dissolved in corn oil) at 5 mL/kg twice a week to induce liver fibrosis model. Three weeks after modeling, mice were randomly divided into five groups: model control group (Model, n=12), positive compound FTY720 group (2 mg/kg, n=9), positive compound OCA group (30 mg/kg, n=10), low dose group (3 mg/kg), high dose group (10 mg/kg), FTY720 was administered by intraperitoneal injection and the rest of the groups were administered by oral gavage, once a day. After 5 weeks of administration, the mice were sacrificed by dislocation after blood was taken via the posterior ophthalmic plexus, liver and spleen were taken and weighed. Part of the liver was fixed in 4% paraformaldehyde, and part of the liver and serum were stored at −80° C. 10 mice from the same litter were injected intraperitoneally with the same dose of corn oil throughout the experiment as a systemic control.

Sequence of S1PR3 (Q99500 whole entry, species assumed): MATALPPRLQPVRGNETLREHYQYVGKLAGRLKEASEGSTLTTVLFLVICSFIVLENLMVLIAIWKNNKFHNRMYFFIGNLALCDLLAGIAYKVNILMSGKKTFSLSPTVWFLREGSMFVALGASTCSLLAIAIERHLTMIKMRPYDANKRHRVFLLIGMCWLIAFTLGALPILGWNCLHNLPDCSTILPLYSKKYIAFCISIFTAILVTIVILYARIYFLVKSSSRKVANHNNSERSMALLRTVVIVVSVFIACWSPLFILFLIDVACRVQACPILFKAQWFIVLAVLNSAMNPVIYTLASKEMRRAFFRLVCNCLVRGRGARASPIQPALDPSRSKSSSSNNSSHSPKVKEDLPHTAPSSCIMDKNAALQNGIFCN

SMILES: CC(C)Oc1ccc(-c2nc(-c3ccc(CN4CC(C(=O)O)C4)c4ccccc34)no2)cc1C#N.Cl [Compound A1, 1-((4-(5-(3-cyano-4-isopropoxyphenyl)-1,2,4-oxadiazol-3-yl)naphthalen-1-yl)methyl) azetidine-3-carboxylic acid hydrochloric acid]
- pEC50 (S1PR3; FLIPR agonist mode, read-out: S1PR3 EC50): < 5.00
- pEC50 (S1PR3; subtype selectivity study, read-out: S1P3 EC50): < 5.00
- pEC50 (S1P2): < 5.00
- pEC50 (S1P4): < 5.00
- pEC50 (S1P5): 6.92
- hydroxyproline content in the liver ([1]; high dose (10 mg/kg), 10 mg/kg): significantly alleviated; also recorded: alleviating
- mRNA expression of liver fibrosis-related genes (Tgfb, Col1a1) ([1]; high dose (10 mg/kg), 10 mg/kg): significantly downregulated; also recorded: downregulates
- liver and spleen organ weights ([1]; oral gavage once a day, 5 weeks): without affecting
- ALT levels in serum ([1]; oral gavage once a day, 5 weeks, 3 and 10 mg/kg groups): significantly reduced
- collagen deposition in the liver ([1]; pathological section analysis): significantly reduced
